In brackets after ≈: the same amount, converted by molar mass.
What was measured:
[1] = tested on: MDCK; experiment: MDCK permeability assay; type: in vitro ADME; details: pH 7.4
Experimental: This assay is for generating screening data only, and to estimate the intestinal absorption potential of drug candidates. The study will be conducted in accordance with International Bioethical Standards “World MedicalAssociation Declaration of Helsinki.
Cell line: • ▪ MDCK (ATCC), or MDCK MDR1 (NKI).
Prepare donor buffer: • For A-to-B direction: • ✔ HBSS buffer with 0.3% DMSO and 5 µM Lucifer Yellow (LY): add 150 µL DMSO and 125 µL LY (2 mM) into 50 mL HBSS buffer (pH 7.4). • ✔ HBSS buffer with 0.1% DMSO and 5 µM Lucifer Yellow (LY): add 50 µL DMSO and 125 µL LY (2 mM) into 50 mL HBSS buffer (pH 7.4). • ✔ HBSS buffer with 5 µM Lucifer Yellow (LY): add 125 µL LY (2 mM) into 50 mL HBSS buffer (pH 7.4). • For B-to-A direction: • ✔ HBSS buffer with 0.3% DMSO: add 150 µL DMSO into 50 mL HBSS buffer (pH 7.4). • ✔ HBSS buffer with 0.1% DMSO: add 50 µL DMSO into 50 mL HBSS buffer (pH 7.4). • ✔ HBSS buffer without DMSO. • Prepare receiver buffer: • For A-to-B direction: Prepare HBSS buffer with 0.4% DMSO: add 200 µL DMSO into 50 mL HBSS buffer (pH 7.4) • For B-to-A direction: Prepare HBSS buffer with 0.4% DMSO and 5 µM LY: add 200 uL DMSO and 125 µL LY (2 mM) into 50 mL HBSS buffer (pH 7.4) • Controls: • Prepare 10 mM stock concentrations of compound in DMSO and Lucifer Yellow in assay buffer using the following formula: • (Actual Weight/Molecular Weight)/mL solvent =10 mM • Reference compound: Erythromycin, Metoprolol, Atenolol
MDCK assay plates are seeded 3-4 days prior to running the assay. 24-well plates are seeded at a cell density of 0.88 × 10^5/well in a 400 µL apical chamber volume (2.2×10^5 /mL) with a 25 mL volume of growth medium to the 24-well basal chamber. Assay plates are generally provided with a growth medium change 24 hours prior to the assay.
MDCK assay plates are rinsed with HBSS+ buffer prior to running the assay. After rinsing, fresh HBSS+ is added to the assay plate in a 400 µL apical chamber volume and a 0.8 mL HBSS+ basal chamber volume. Measure the electrical resistance across the monolayer using the Millicell ERS system ohm meter. (The cells will be used if TEER is higher than 100 ohm*cm^2).
Preparation of the cell plates: • Remove the buffer from the apical side and basolateral side. Add 600 µL of donor solution (for A-to-B) or 500 µL of receiver solution (for B-to-A) to the apical wells based on plate map. • A fresh basolateral plate is prepared by adding 800 µL of receiver solution (for A-to-B) or 900 µL of donor solution (B-to-A) to the well of a new 24-well plate. • Put the apical plate and basolateral plate into 37° C. incubator.
Preparation of analytical plate: • After 5 min, transfer 100 µL of samples from all donors (for both A-to-B and B-to-A) into appropriate wells of a sample plate for D0. And transfer 100 µL of samples from all apical chambers (the donor of A-to-B and receiver of B-to-A) into appropriate wells of a microplate for Lucifer Yellow D0 (D0 LY) • Lay the apical plate to the basolateral plate to start transport process. • At 90 min, separate the apical and basolateral plates and transfer 100 µL of samples from all donors (for both A-to-B and B-to-A) into appropriate wells of a new sample plate for D90, and transfer 200 µL of samples from all receivers into appropriate wells of a sample plate for R90. Transfer 100 µL of samples from all basolateral chambers (receiver of A-to-B and donor of B-to-A) into appropriate wells of a new microplate for Lucifer Yellow R90 (R90 LY). • Determine LY permeability by reading D0 LY and R90 LY at an excitation wavelength of 485 nm and an emission wavelength of 535 nm using a fluorescent plate reader. • Sample preparation: • For receiver solution: 60 µL of sample + 60 µL ACN with IS (200 ng/mL Osalmid) • For donor solution: 6 µL of sample + 54 µL 0.4% DMSO/HBSS + 60 µL ACN with IS (200 ng/mL Osalmid) […]

[2] = Kinetic solubility assay; type: physicochemical; details: pH 7.4, aqueous buffer, kinetic from dmso stock; phosphate buffer pH7.4, 1% DMSO, 1 hour at room temperature
Experimental: This protocol is designed to measure kinetic solubility of test articles in assay buffer. The study will be conducted in accordance with International Bioethical Standards “World Medical Association Declaration of Helsinki.
100 Phosphate Buffer, pH7.4
• 1) Prepare stock solutions for test compounds in DMSO at 10 mM concentration. Dilute the stock solutions into 100 mM phosphate buffer in triplicate in 1.5 ml Eppendorf tubes to a target concentration of 100 µM with a final DMSO concentration of 1%: • 2) 4 µL of 10 mM DMSO stock solution into 396 µL of assay buffer. • 3) Keep the sample tubes shaken (1000 rpm) for 1 hour at room temperature. • 4) Centrifuge sample tubes for 10 min at 12000 rpm (Eppendrof-5424, about 13500 g) to precipitate un-dissolved particles. • 5) Transfer the supernatants to new tubes with different dilutions (undiluted, 10-fold diluted, 100-fold diluted, or other fold diluted). • 6) Add 5 µL of working solution and diluted supernatants to 95 µL ACN (containing IS). Analyze the samples by LC-MS-MS against calibration curve.
A standard calibration curve is prepared in Methanol/H2O (1:1).

Row | Structure (SMILES) | MDCK Permeability (A-B) (×10-6 cm/s) ([1]; A-B) | MDCK Permeability (B-A) (×10-6 cm/s) ([1]; B-A) | solubility kinetic at 1 h [2]
1 | CN1CCc2cc(F)c(Nc3ncc(Cl)c(N4C[C@](C)(CC(=O)O)c5ccccc54)n3)cc2C1 (single isomer, unassigned) [Example 5, (R)-2-[1-[5-chloro-2-[(6-fluoro-2-methyl-3,4-dihydro-1H-isoquinolin-7-yl)amino]pyrimidin-4-yl]-3-methyl-indolin-3-yl]acetic acid or (S)-2-[1-[5-chloro-2-[(6-fluoro-2-methyl-3,4-dihydro-1H-isoquinolin-7-yl)amino]pyrimidin-4-yl]-3-methyl-indolin-3-yl]acetic acid] | 11.9 ×10-6 cm/s | 52.3 ×10-6 cm/s | –
2 | COc1cc2c(cc1Nc1ncc(Cl)c(N3CC(C(=O)O)c4ccccc43)n1)CN(C)CC2 (stereo not shown) [Compound 7, reference compound] | – | – | 7.71 µM (≈ 3.59 µg/mL)
3 | COc1cc2c(cc1Nc1ncc(Cl)c(N3CC(CC(=O)O)c4ccccc43)n1)CN(C)CC2 (stereo not shown) [Compound 8, reference compound] | – | – | 62.1 µM (≈ 29.8 µg/mL)
4 | COc1cc2c(cc1Nc1ncc(Cl)c(N3CC(C)(CC(=O)O)c4ccc(F)cc43)n1)CN(C)CC2 (stereo not shown) [Compound 10, reference compound] | – | – | 56.2 µM (≈ 28.8 µg/mL)
5 | COc1cc2c(cc1Nc1ncc(Cl)c(N3CC(C)(CC(=O)O)c4ccccc43)n1)CN(C)CC2 (stereo not shown) [Example 1, 2-(1-(5-chloro-2-((6-methoxy-2-methyl-1,2,3,4-tetrahydroisoquinolin-7-yl)amino)pyrimidin-4-yl)-3-methylindolin-3-yl)acetic acid] | – | – | 1.5 µM (≈ 0.741 µg/mL)
6 | CN1CCc2cc(F)c(Nc3ncc(Cl)c(N4CC(C)(CC(=O)O)c5ccccc54)n3)cc2C1 (stereo not shown) [Example 4, 2-(1-(5-chloro-2-((6-fluoro-2-methyl-1,2,3,4-tetrahydroisoquinolin-7-yl)amino)pyrimidin-4-yl)-3-methylindolin-3-yl)acetic acid] | – | – | 46.7 µM (≈ 22.5 µg/mL)

Source: US20230339896A1, “HPK1 INHIBITORS AND USES THEREOF” (QILU REGOR THERAPEUTICS INC., priority 2020, published 2023)
